Laboratory results from patent publication US8895585B2, “Nicotinamide derivative or salt thereof” (FUJIFILM Corporation, priority 2010, dated 2014).
Where two headings read alike, the source gives them in different places.

Columns and labels:
THP-1 cells = assay: TNFα generation assay; assay type: cell-based, human; conditions: Homo sapiens, THP-1, 7 h, IFN-γ-differentiated THP-1 cells on human IgG-coated plate, cultured 7 hours; read-out: TNFα generation inhibitory activity (IC50)
Description: THP-1 cells (2×10^5 cells/ml), which were human monocytoid cells, were cultured in the presence of 10 ng/ml IFN-γ (Roche) for 2 days, so that the cells were induced to differentiate into macrophage-like cells. The differentiation-induced THP-1 cells were recovered, and the cells (1×10^6 cell/ml) were then allowed to react with a predetermined concentration of test compound at room temperature for 30 minutes. On the other hand, 100 μl of human IgG (10 μg/ml, SIGMA-ALDRICH) diluted with PBS was added to a 96-well plate, and it was then incubated at room temperature overnight. Thereafter, the resultant was washed with PBS twice to produce a human IgG-coated plate. Subsequently, a cell solution that contained a compound was inoculated on the human IgG-coated plate (5×10^4 cells/well), and it was then cultured for 7 hours. Thereafter, the cultured solution was recovered, and the amount of TNFα secreted into the culture solution was then measured by the ELISA method (Roche/R & D Systems) or the AlphaLISA method (PerkinElmer).

[1] = molecular target: T1, glutathione S-transferase (GST)-fused full-length human Syk protein (Homo sapiens, UniProt P43405); assay: Syk enzyme assay; assay type: biochemical
T1 construct: (GST)-fused full-length human Syk protein; GST (glutathione S-transferase); purchased Carna Biosciences
Summary of the method: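 IC50 values come from a time-resolved FRET readout (615 and 665 nm) of substrate phosphorylation, measured after an EDTA stop and 1 h antibody binding. The kinase reaction ran 40 min at room temperature with 27 μM ATP and 0.4 μM biotin-peptide, following a 15 min compound preincubation with baculovirus-made GST-full-length human Syk.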

[2] = Syk enzyme assay, Test Example 1, read-out: IC50 of Syk-inhibitory activity
[3] = read-out: Syk-inhibitory activity (IC50)

Row | IC50 (THP-1 cells) [nM] | IC50 [1, 2] [nM] | Structure (SMILES) | also measured
1 | ≤ 200 | – | NC(=O)c1cc(F)c(N[C@@H]2CCCC[C@@H]2N)nc1Nc1cncc(-c2ccccc2)c1 (relative stereo) [Example 2-1, 6-(cis-2-aminocyclohexylamino)-5-fluoro-2-((5-phenylpyridin-3-yl)amino)nicotinamide] | –
2 | ≤ 200 | – | Cc1cccc(Nc2nc(N[C@@H]3CCCC[C@@H]3N)c(F)cc2C(N)=O)c1 (relative stereo) [Example 2-3, 6-(cis-2-aminocyclohexylamino)-5-fluoro-2-((3-methyl-phenyl)amino)nicotinamide] | –
3 | ≤ 200 | – | NC(=O)c1cc(F)c(N[C@@H]2CCCC[C@@H]2N)nc1Nc1ccc(N2CCOCC2)cc1 (relative stereo) [Example 2-5, 6-(cis-2-aminocyclohexylamino)-5-fluoro-2-((4-(morpholin-4-yl)phenyl)amino)nicotinamide] | –
4 | ≤ 200 | – | COc1cc(Nc2nc(N[C@@H]3CCCC[C@@H]3N)c(F)cc2C(N)=O)cc(OC)c1OC (relative stereo) [Example 2-7, 6-(cis-2-aminocyclohexylamino)-5-fluoro-2-((3,4,5-trimethoxy-phenyl)amino)nicotinamide] | –
5 | ≤ 200 | – | NC(=O)c1cc(F)c(N[C@@H]2CCCC[C@@H]2N)nc1Nc1ccc(N2CCOCC2)nc1 (relative stereo) [Example 2-20, 6-(cis-2-aminocyclohexylamino)-5-fluoro-2-((6-(morpholin-4-yl)pyridin-3-yl)amino)nicotinamide] | –
6 | ≤ 200 | – | NC(=O)c1cc(F)c(N[C@@H]2CCCC[C@@H]2N)nc1Nc1cnc2c(ccn2CCN2CCCC2)c1 (relative stereo) [Example 4-22, 6-(cis-2-aminocyclohexylamino)-5-fluoro-2-((1-(2-(pyrrolidin-1-yl)ethyl)-1H-pyrrolo[2,3-b]pyridin-5-yl)amino)nicotinamide] | –
7 | ≤ 200 | – | NC(=O)c1cc(F)c(N[C@@H]2CCCC[C@@H]2N)nc1Nc1ccnc2c1ccn2CCN1CCCC1 (relative stereo) [Example 4-23, 6-(cis-2-aminocyclohexylamino)-5-fluoro-2-((1-(2-(pyrrolidin-1-yl)ethyl)-1H-pyrrolo[2,3-b]pyridin-4-yl)amino)nicotinamide] | –
8 | ≤ 200 | – | NC(=O)c1cc(F)c(N[C@@H]2CCCC[C@@H]2N)nc1Nc1ccnc2c1ccn2CCN1CCOCC1 (relative stereo) [Example 4-25, 6-(cis-2-aminocyclohexylamino)-5-fluoro-2-((1-(2-(morpholin-4-yl)ethyl)-1H-pyrrolo[2,3-b]pyridin-4-yl)amino)nicotinamide] | –
9 | ≤ 200 | – | NC(=O)c1cc(F)c(N[C@@H]2CCCC[C@@H]2N)nc1Nc1cnc2ncsc2c1 (relative stereo) [Example 4-26, 6-(cis-2-aminocyclohexylamino)-5-fluoro-2-(([1,3]thiazolo[4,5-b]pyridin-6-yl)amino)nicotinamide] | –
10 | ≤ 200 | – | CCN(CC)CCn1ccc2c(Nc3nc(N[C@@H]4CCCC[C@@H]4N)c(F)cc3C(N)=O)ccnc21 (relative stereo) [Example 4-28, 6-(cis-2-aminocyclohexylamino)-2-((1-(2-(diethylamino)ethyl)-1H-pyrrolo[2,3-b]pyridin-4-yl)amino)-5-fluoronicotinamide] | –
11 | ≤ 200 | – | NC(=O)c1cc(F)c(N[C@@H]2CCCC[C@@H]2N)nc1Nc1ccnc2c1ccn2CC1CC1 (relative stereo) [Example 4-40, 6-(cis-2-aminocyclohexylamino)-2-((1-(cyclopropylmethyl)-1H-pyrrolo[2,3-b]pyridin-4-yl)amino)-5-fluoronicotinamide] | –
12 | ≤ 200 | – | NC(=O)c1cc(F)c(N[C@@H]2CCCC[C@@H]2N)nc1Nc1cncc(-n2nccn2)c1 (relative stereo) [Example 4-42, 6-(cis-2-aminocyclohexylamino)-5-fluoro-2-((5-(2H-1,2,3-triazol-2-yl)pyridin-3-yl)amino)nicotinamide] | –
13 | ≤ 200 | – | NC(=O)Nc1cccc2cc(Nc3nc(N[C@@H]4CCCC[C@@H]4N)c(F)cc3C(N)=O)cnc12 (relative stereo) [Example 4-64, 2-((8-(aminocarbonyl)amino-quinolin-3-yl)amino)-6-(cis-2-amino-cyclohexylamino)-5-fluoronicotinamide] | –
14 | ≤ 200 | – | NC(=O)c1cc(F)c(N[C@@H]2CCCC[C@@H]2N)nc1Nc1ccc2nsnc2c1 (relative stereo) [Example 6-34, 6-(cis-2-aminocyclohexylamino)-2-((benzo[c][1,2,5]thiadiazol-5-yl)amino)-5-fluoronicotinamide] | –
15 | – | < 10 | NC(=O)c1cc(F)c(NC2CCCC[C@@H]2N)nc1Nc1ccnc2c1ccn2CC(=O)N1CCOCC1 (some centres unmarked) [Example 029-006] | –
16 | – | 10 to 50 | CNC(=O)c1cc2c(Nc3nc(NC4CCCCC4N)c(F)cc3C(N)=O)ccnc2n1C (centres unmarked) [Example 029-008] | –
17 | – | 100 to 1000 | CN(C)C(=O)c1cc2c(Nc3nc(N[C@@H]4CCCC[C@@H]4N)c(F)cc3C(N)=O)ccnc2n1C [Example 029-009] | –
18 | – | 100 to 1000 | Cn1c(C(=O)N2CCOCC2)cc2c(Nc3nc(NC4CCCC[C@@H]4N)c(F)cc3C(N)=O)ccnc21 (some centres unmarked) [Example 029-010] | –
19 | – | 100 to 1000 | Cn1c(C(=O)NCCN2CCOCC2)cc2c(Nc3nc(N[C@@H]4CCCC[C@@H]4N)c(F)cc3C(N)=O)ccnc21 [Example 029-011] | –

Row | IC50 (THP-1 cells) [nM] | IC50 [1, 2] [nM] | Structure (SMILES) | also measured
20 | – | < 10 | NC(=O)c1cc(Nc2nc(N[C@@H]3CCCC[C@@H]3N)c(F)cc2C(N)=O)ccn1 [Example 029-012] | –
21 | – | 10 to 50 | CNC(=O)c1cc(Nc2nc(NC3CCCC[C@@H]3N)c(F)cc2C(N)=O)ccn1 (some centres unmarked) [Example 029-013] | –
22 | – | 50 to 100 | CN(C)C(=O)c1cc(Nc2nc(NC3CCCC[C@@H]3N)c(F)cc2C(N)=O)ccn1 (some centres unmarked) [Example 029-014] | –
23 | – | – | NCCNc1nc(Nc2cccc(C(=O)Nc3ccccc3)c2)c(C(N)=O)cc1F [Example 30, 6-(2-aminoethylamino)-2-(3-(anilinocarbonyl)phenylamino)-5-fluoronicotinamide] | IC50 [1, 3]: ≤ 1000 nM
24 | – | 100 to 1000 | NCCNc1nc(Nc2cccc(C(=O)N3CCCCC3)c2)c(C(N)=O)cc1F [Example 031-002] | –
25 | – | – | NCCNc1nc(Nc2cccc(C(=O)NC3CCCCC3)c2)c(C(N)=O)cc1F [Example 31-3, 6-((2-aminoethyl)amino)-2-((3-(cyclohexylaminocarbonyl)phenyl)amino)-5-fluoronicotinamide] | IC50 [1, 3]: ≤ 1000 nM
26 | – | – | COc1cc(Nc2nc(NC(C(N)=O)C(C)C)c(F)cc2C(N)=O)cc(OC)c1 (centres unmarked) [Example 32, 6-(1-aminocarbonyl-2-methylpropylamino)-2-(3,5-dimethoxyphenylamino)-5-fluoro nicotinamide] | IC50 [1, 3]: ≤ 1000 nM
27 | – | – | COc1cc(Nc2nc(NC(C)C(N)=O)c(F)cc2C(N)=O)cc(OC)c1 (centres unmarked) [Example 33-1, 6-((2-amino-1-methyl-2-oxoethyl)amino)-2-(3,5-dimethoxyphenylamino)-5-fluoronicotinamide] | IC50 [1, 3]: ≤ 1000 nM
28 | – | 100 to 1000 | COc1cc(Nc2nc(NC(C)(C)C(N)=O)c(F)cc2C(N)=O)cc(OC)c1 [Example 033-002] | –
29 | – | 100 to 1000 | COc1cc(Nc2nc(NCCC(N)=O)c(F)cc2C(N)=O)cc(OC)c1 [Example 033-003] | –
30 | – | 100 to 1000 | COc1cc(Nc2nc(N[C@@H](C(N)=O)C(C)(C)C)c(F)cc2C(N)=O)cc(OC)c1 [Example 033-005] | –
31 | – | 100 to 1000 | COc1cc(Nc2nc(NC3CCCC3C(N)=O)c(F)cc2C(N)=O)cc(OC)c1 (centres unmarked) [Example 033-007] | –
32 | – | < 10 | Cc1cc(C)cc(Nc2nc(NCCN)c(Cl)cc2C(N)=O)c1 [Example 035-008] | –
33 | – | 50 to 100 | NC[C@@H](Nc1nc(Nc2ccc3ncccc3c2)c(C(N)=O)cc1F)c1ccccn1 [Example 39-5, (R)-6-((2-amino-1-(pyridin-2-yl)ethyl)amino)-5-fluoro-2-((quinolin-6-yl)amino)nicotinamide] | –
34 | – | 50 to 100 | Cc1ccc(S(=O)(=O)Nc2cccc3cc(Nc4nc(NC5CCCC[C@@H]5N)c(F)cc4C(N)=O)cnc23)cc1 (stereo partly drawn) [Example 41-4, 6-(cis-2-aminocyclohexylamino)-5-fluoro-2-((8-(4-methylphenylsulphonamide)quinolin-3-yl)amino)nicotinamide] | –
35 | – | 100 to 1000 | NC(=O)c1cc(F)c(NC2CCCC[C@@H]2N)nc1Nc1cnc2c(NS(=O)(=O)c3ccc(C(F)(F)F)cc3)cccc2c1 (stereo partly drawn) [Example 41-7, 6-(cis-2-aminocyclohexylamino)-5-fluoro-2-((8-(4-(trifluoromethyl)phenylsulphonamide)-quinolin-3-yl)amino)nicotinamide] | –
36 | – | 10 to 50 | NC(=O)c1cc(F)c(NC2CCCC[C@@H]2N)nc1Nc1cnc2c(NS(=O)(=O)Cc3ccccc3)cccc2c1 (stereo partly drawn) [Example 41-9, 6-(cis-2-aminocyclohexylamino)-5-fluoro-2-((8-(phenylmethylsulphonamide)quinolin-3-yl)amino)nicotinamide] | –
37 | – | 100 to 1000 | Cc1cc(Nc2nc(N[C@H](CCCN)[C@H](C)N)c(F)cc2C(N)=O)cnc1C [Example 045-000] | –
38 | – | 100 to 1000 | Cc1cc(Nc2nc(N[C@H](CCCN(C)C)[C@H](C)N)c(F)cc2C(N)=O)cnc1C [Example 046-000] | –
